We go through 5 compounds from patent publication US20150140059A1 (The Regents of the University of California, priority 2012, published 2015).

Assay [1] has as its system C3H10T1/2 embryonic fibroblast cells. It counts as cell-based, mouse. To be noted: C3H cells, 4 days; for EC50: whole cell extracts, read-out: EC50 for inducing ALP activity. How it is done: (§1) For direct comparison to Oxy133, C3H cells were also treated with Oxy34 and Oxy49 (FIG. 2A). After 4 days, alkaline phosphatase (ALP) activity was measured in whole cell extracts.
(§2) Cells at confluence were treated with vehicle, Oxy133 or Oxy149. After 4 days, alkaline phosphatase (ALP) activity was measured in whole cell extracts.
(§3) Alkaline phosphatase (ALP) activity assay on whole cell extracts (13,14), and von Kossa staining of cell monolayers for mineralization (16) were performed as previously described.

Assay [2] has as its system M2-10B4 bone marrow stromal cells. In words: Alkaline phosphatase (ALP) activity assay in M2-10B4 cells. The format is cell-based, mouse. How it is done:
as §1, §2, §3

The subject of assay [3] is Lewis rats. The note with it: prior studies (ref. 15); cited from earlier work.
In assay [4] the target is T1, Smoothened (YFP-Smo) (Mus musculus, UniProt P56726).
T1 construct: expressed in transfected cells
In words: YFP-Smo capture by 20S-beads, competition with free sterol. The format is binding. The note with it: 50 μM free competitor sterol, Western blot, semi-quantitative. How it is done: (§4) After 4 days ALP activity, and after 7 days the expression of osteogenic genes ALP, BSP, and OSX was measured by quantitative real-time PCR (p<0.001 for control vs. Oxy133, and for Oxy133 vs. Oxy133+Cyc for ALP activity and for the expression of all genes shown). […] (p<0.001 for control vs. Oxy133 at 100 nM, 250 nM, and 1 μM Oxy133). (FIG. 4C) The amount of YFP-Smo captured by 20S beads or control beads was compared in samples containing either no competitor or 50 μM of a free competitor sterol (20S, Oxy133 or Oxy16). The YFP-Smo captured by the beads was measured by Western blot (top) and plotted (bottom) relative to the amount captured in the binding reaction with no competitor.
We previously reported that 20S selectively activates Hh signaling by binding to the Smo receptor (19). To determine whether Oxy133 activates Hh signaling by the same mechanism, we tested the ability of Oxy133 to compete for YFP-tagged Smo (YFP-Smo) binding with a 20S analogue coupled to magnetic beads. As we previously reported, this analogue, nat-20S-yne, contains an alkyne moiety on the iso-octyl chain, allowing for click chemistry-mediated coupling to magnetic beads (20S-beads) (19). Using these beads for sterol-binding assays, the amount of YFP-Smo remaining on the beads relative to a no-competitor sample is measured by Western blotting. […]

Assay [5] has as its system primary human mesenchymal stem cells. The assay is described as follows: Osteogenic gene expression by quantitative RT-PCR in primary human MSC. It counts as cell-based. To be noted: 5 μM. The text has this:
(La Jolla, Calif.). […] Human primers sequences were: […] ID NO:1) and 3'-[NT] (SEQ ID NO:2), BSP 5'-[NT] ID NO:3) and 3'-[NT] ID NO:4), […] ID NO:5) and 3'-[NT]

The subject of assay [6] is Lewis rats. The assay is described as follows: Rat posterolateral intertransverse process spinal fusion at L4-L5. The note with it: for Fusion Rates, Manual Palpation / Fusion Rates, Micro-CT / Fusion Rates, X-ray: at sacrifice (8 weeks); for bilateral fusion on radiographs (animals): four weeks; for Fusion Mass Bone Volume / Fusion Mass Bone Volume to Tissue Volume / Fusion Mass Total Tissue Volume / Fusion Mass Trabecular Separation / trabecular thickness per footnote: micro-CT. It counts as in vivo. How it is done: Thirty-eight 8-week-old male Lewis rats were purchased from Charles River Laboratories (Wilmington, Mass.) and were maintained and housed at the UCLA vivarium in accordance with regulations set forth by the UCLA Office of Protection of Research Subjects. The study was performed under a protocol approved by the UCLA Animal Research Committee (ARC).
Animals were pre-medicated with sustained release buprenorphine thirty minutes prior to surgery and anesthetized with 2% isoflurane administered in oxygen (1 L/min). The surgical site was shaved and disinfected with Betadine and 70% ethanol. Posterolateral intertransverse process spinal fusion at L4-L5 was performed as in prior studies (21,22). The L6 vertebral body was identified using the iliac crest as a landmark. A 4-cm longitudinal midline incision was made through the skin and subcutaneous tissue over L4-L5 down to the lumbodorsal fascia. A 2-cm longitudinal paramedial incision was then made in the paraspinal muscles bilaterally to expose the transverse processes of L4-L5, which were decorticated with a high-speed burr. […] The implants were then covered with the overlying paraspinal muscles and the lumbodorsal fascia and skin were closed with 4-0 Prolene sutures (Ethicon, Inc., Somerville, N.J.). Animals were allowed to ambulate, eat, and drink ad libitum immediately after surgery.
Posteroanterior radiographs of the lumbar spine were taken on each animal at 4, 6, and 8 weeks after surgery using a Faxitron LX60 cabinet radiography system and evaluated blindly by two independent observers employing the following standardized scale: 0, no fusion; 1, unilateral fusion; and 2, complete bilateral fusion. The scores from the observers were added together and only a score of 4 was considered as complete fusion.
Eight weeks after surgery, animals were euthanized and the spines were surgically removed and evaluated by two blinded independent observers for motion between levels. Nonunion was recorded if motion was observed between the facets or transverse processes on either side. Complete fusion was recorded if no motion was observed bilaterally. Spines were scored as either fused or not fused. Unanimous agreement was required to consider complete fusion.
Each removed spine was analyzed by high resolution micro-computed tomography (micro-CT), using a SkyScan 1172 scanner (SkyScan, Belgium) with a voxel isotropic resolution of 20 μm and an X-ray energy of 55 kVp and […] to further assess the fusion rate and observe the fusion mass as we have previously reported (15). Three hundred and sixty projections were acquired over an angular range of 180° with steps of 0.5 with an exposure time of 220 msec/slice. Five frames were averaged at each rotation step to get better signal to noise ratio. A 0.5 mm aluminum filter was used to narrow down the X-ray beam frequency in order to minimize beam hardening artifact. Virtual image slices were reconstructed using the cone-beam reconstruction software version 2.6 based on the Feldkamp algorithm (SkyScan). These settings produced serial cross-sectional 1024×1024 pixel images. Sample re-orientation and 2D visualization were performed using DataViewer (SkyScan). 3D visualization was performed using Dolphin Imaging version 11 (Dolphin Imaging & Management Solutions, Chatsworth, Calif.). Fusion was defined as the bilateral presence of bridging bone between the L4 and L5 transverse processes. The reconstructed images were judged to be fused or not fused by two experienced independent observers. To quantify the density of bone formed within each fusion mass, the tissue volume of the mass (TV), trabecular bone volume within the mass (BV), BV/TV ratio, trabecular thickness, and trabecular separation were calculated. This was performed using DataViewer software with measurements across 501 axial slices (20 um per slice, 10.02 mm length) within each fusion mass, centered at the level of the intervertebral body of L4-5.

For assay [7], the system named is 8X-Gli luciferase reporter (Hedgehog pathway). The format is cell-based, mouse. To be noted: C3H cells, 48 hours. How it is done: as §4
Cells at 70% confluence in 24-well plates were transiently transfected with Gli-dependent firefly luciferase and Renilla luciferase vectors as we have previously described (17,18). […] Luciferase activity was assessed using the Dual Luciferase Reporter Assay System (Promega Corporation, Madison, Wis.) according to manufacturer's instructions after cells were treated for 48 hours.

Like-named read-outs stand apart in the source and are kept apart here.

T1 sequence (P56726 33-793): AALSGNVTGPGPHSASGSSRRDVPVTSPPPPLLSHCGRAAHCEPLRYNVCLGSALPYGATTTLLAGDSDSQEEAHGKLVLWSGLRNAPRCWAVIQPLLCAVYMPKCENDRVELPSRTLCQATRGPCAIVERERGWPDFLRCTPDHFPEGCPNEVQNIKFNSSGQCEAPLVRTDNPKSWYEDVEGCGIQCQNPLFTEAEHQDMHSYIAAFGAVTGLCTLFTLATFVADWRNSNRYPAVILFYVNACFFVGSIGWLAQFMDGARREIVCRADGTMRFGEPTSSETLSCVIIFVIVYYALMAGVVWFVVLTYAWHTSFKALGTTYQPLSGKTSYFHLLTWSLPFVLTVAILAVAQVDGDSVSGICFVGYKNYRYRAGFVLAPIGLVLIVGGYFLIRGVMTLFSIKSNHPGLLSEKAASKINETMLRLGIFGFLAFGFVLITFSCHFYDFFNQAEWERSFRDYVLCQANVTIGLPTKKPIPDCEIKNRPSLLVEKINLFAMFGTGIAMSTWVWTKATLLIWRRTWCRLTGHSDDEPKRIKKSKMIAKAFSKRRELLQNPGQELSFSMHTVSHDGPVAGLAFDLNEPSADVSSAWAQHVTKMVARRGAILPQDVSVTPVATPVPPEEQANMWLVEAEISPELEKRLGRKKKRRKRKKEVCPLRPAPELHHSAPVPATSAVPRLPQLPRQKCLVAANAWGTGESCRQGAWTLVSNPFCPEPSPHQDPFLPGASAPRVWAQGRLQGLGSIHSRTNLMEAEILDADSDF

Regarding `CC1=C2C[C@H]3[C@@H](CC=C4C[C@@H](O)CC[C@@]43C)[C@@H]2CC[C@]12O[C@@H]1C[C@H](C)CN[C@H]1[C@H]2C` [Cyclopamine, reference compound], the “inhibition of Oxy133-induced ALP activity” value in assay [1] (4 μM cyclopamine) is “completely inhibited”. In addition, the “inhibition of Oxy133-induced ALP activity and osteogenic marker expression” value in assay [2] (M2 cells (data not shown)) is on record as “completely inhibited”.

As to `CC(C)CCCC(C)(O)C1CCC2C3CC(O)C4CC(O)CCC4(C)C3CCC21C` (stereo not shown) [Oxy34], the concentration for a half-maximal effect (EC50) in assay [1] worked out at 800 nM. Further, the “fusion at the 4 week time point” value in assay [3] is given as “no fusion was observed”.

As for `CC(C)CCC[C@](C)(O)[C@H]1CC[C@H]2[C@@H]3CC=C4C[C@@H](O)CC[C@]4(C)[C@H]3CC[C@@]21C` [Oxy 20S, 20(S)-hydroxycholesterol], the “amount of YFP-Smo captured on 20S-coupled beads” value in assay [4] is reported as “reduced the amount of YFP-Smo captured”.

Regarding `CCCCCC[C@](C)(O)[C@H]1CC[C@H]2[C@@H]3C[C@H](O)[C@H]4C[C@@H](O)CC[C@]4(C)[C@H]3CC[C@@]21C` [Oxy133, (3S,5S,6S,8R,9S,10R,13S,14S,17S)-17-((S)-2-hydroxyoctan-2-yl)-10,13-dimethylhexadecahydro-1H-cyclopenta[a]phenanthrene-3,6-diol], in assay [5] (2 and 4 weeks), the BSP expression increase stood at 4 fold. In assay [5] (4 weeks), this compound returned an OCN expression induction of 2 fold and an OSX expression induction of 3 fold. For the same compound, the BSP expression increase in assay [5] (one week) turned out to be 2 fold. For the same compound, in assay [1] (Mus musculus, 96 h), the EC50 is about 500 nM. Further, in assay [6] (0.2 mg), the “Fusion Rates, Manual Palpation” value was 0%; the “Fusion Rates, Micro-CT” value came to 0%; the “Fusion Rates, X-ray” value was 0%. Further, in assay [6] (2 mg, 8 weeks), the “bilateral fusion, manual palpation (animals)” value is on record as 4/8; the “bilateral fusion, micro-CT (animals)” value was 4/8; the “Fusion Mass Bone Volume” value is given as 21.217 mm^3; the “Fusion Mass Bone Volume to Tissue Volume” value is 27.104%. Moreover, in assay [6] (2 mg, 8 weeks), the “Fusion Mass Total Tissue Volume” value is listed as 78.586 mm^3, the “Fusion Mass Trabecular Separation” value was 321.693 μm and the “trabecular thickness per footnote” value amounted to 134.008. Moreover, in assay [6] (2 mg), the “Fusion Rates, Manual Palpation” value is on record as 50%; the “Fusion Rates, Micro-CT” value is reported as 50%; the “Fusion Rates, X-ray” value worked out at 50%; the “bilateral fusion on radiographs (animals)” value is given as 3/8. The “fusion on radiographs (animals)” value in assay [6] (2 mg, eight weeks) is 4/8. In assay [6] (20 mg, 8 weeks), the “bilateral fusion, manual assessment (animals)” value is listed as 6/7; the “Fusion Mass Bone Volume” value turned out to be 19.592 mm^3; the “Fusion Mass Bone Volume to Tissue Volume” value is 24.565%; the “Fusion Mass Total Tissue Volume” value was 79.934 mm^3. For the same compound, in assay [6] (20 mg, 8 weeks), the “Fusion Mass Trabecular Separation” value was 310.912 μm and the “trabecular thickness per footnote” value is on record as 124.737. For the same compound, in assay [6] (20 mg), the “Fusion Rates, Manual Palpation” value stood at 86%; the “Fusion Rates, Micro-CT” value amounted to 100%; the “Fusion Rates, X-ray” value is listed as 100%; the “bilateral fusion on radiographs (animals)” value is on record as 6/7. For the same compound, the “Gli-dependent reporter activity induction” value in assay [7] (100 nM) was 5 fold. In assay [7] (1 μM), the “Gli-dependent reporter activity induction” value stood at 17 fold. Also, the half-maximal effective concentration (EC50) in assay [2] (Mus musculus, M210B4, 96 h, read-out: EC50 for inducing ALP activity) is about 440 nM.

For the compound `C=C(C)CCC[C@](C)(O)[C@H]1CC[C@H]2[C@@H]3C[C@H](O)[C@H]4C[C@@H](O)CC[C@]4(C)[C@H]3CC[C@@]21C` [Oxy49], the EC50 in assay [1] was 900 nM. The “fusion at the 4 week time point” value in assay [3] is listed as “no fusion was observed”.
